According to patent US9079866B2, “Flap modulators” (JANSSEN PHARMACEUTICA NV, priority 2013, dated 2015):
Structures can show the parent of a compound that is named as a salt. Where two headings read alike, the source gives them in different places.

Legend:
[1] = system: leukotriene pathway in human whole blood (LTB4 levels); assay: Human whole blood assay (A23187-stimulated LTB4); format: cell-based; details: Homo sapiens, read-out: LTB4 IC50 1:1
Outline: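 Heparinised human whole blood, diluted 1:1 in RPMI, was pre-incubated with test compounds for 15 min at 37° Celsius, then stimulated with A23187 (7 μg/mL) for 30 min at 37° Celsius. Plasma LTB4 was measured by immunoassay kit; IC50 from 4-parameter fit; single replicate, at least one healthy donor.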

human FLAP = human FLAP (Homo sapiens (Human), UniProt P20292); assay: FLAP binding assay (HTRF format); details: HTRF format
Outline: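 Reported data take the mean of two different plates carrying duplicate samples and use the HTRF ratio as the measured signal.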

[2] = human whole blood diluted 1:1, A23187-stimulated
[3] = human whole blood diluted 1:1 in RPMI, A23187-stimulated LTB4
[4] = human FLAP wild type, average of two plates, duplicates

Chain of human FLAP (P20292 whole entry): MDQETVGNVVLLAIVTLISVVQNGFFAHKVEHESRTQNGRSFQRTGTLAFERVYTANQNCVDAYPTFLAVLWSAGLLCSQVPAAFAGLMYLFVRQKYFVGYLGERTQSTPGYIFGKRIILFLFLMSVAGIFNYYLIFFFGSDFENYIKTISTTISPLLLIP

Row | IC50 [1, 2] [nM] | Ki (human FLAP; wild type FLAP) [nM] | IC50 [1, 3] [nM] | Ki (human FLAP; [4]) [nM] | SMILES
1 | 83.9 | 60.5 |  |  | Nc1cnc(-c2ccc(-c3ccccc3N3CCCS3(=O)=O)cc2F)cn1 [Example 856, 5-[2′-(1,1-Dioxidoisothiazolidin-2-yl)-3-fluorobiphenyl-4-yl]pyrazin-2-amine]
2 | 5.55 | 2.9 |  |  | Nc1cnc(-c2ccc(-c3cccnc3S(=O)(=O)C3CCOCC3)cc2F)cn1 [Example 830, 5-{2-Fluoro-4-[2-(tetrahydro-2H-pyran-4-ylsulfonyl)pyridin-3-yl]phenyl}pyrazin-2-amine hydrochloride]
3 | 527 | 17.3 |  |  | Nc1cnc(-c2ccc(-c3cccnc3OC3CCOCC3)cc2F)cn1 [Example 653, 5-{2-Fluoro-4-[2-(tetrahydro-2H-pyran-4-yloxy)pyridin-3-yl]phenyl}pyrazin-2-amine]
4 |  |  | 26 | 1 | Nc1cnc(-c2ccc(-c3ccccc3S(=O)(=O)Nc3ccccc3)cc2F)cn1 [Example 26, 4′-(5-Aminopyrazin-2-yl)-3′-fluoro-N-phenylbiphenyl-2-sulfonamide]
5 | 336 | 8.4 |  |  | N#Cc1nc(-c2ccc(-c3ccccc3Oc3nccc(N)n3)cc2F)cnc1N [Example 695, 3-Amino-6-{2′-[(4-aminopyrimidin-2-yl)oxy]-3-fluorobiphehenyl-4-yl}pyrazine-2-carbonitrile trifluoroacetic acid salt]
6 | 142 | 23.5 |  |  | C[C@@H](O)CNS(=O)(=O)c1ccccc1-c1ccc(-c2ncc(N)nc2C#N)c(F)c1 [Example 708, 4′-(5-Amino-3-cyanopyrazin-2-yl)-3′-fluoro-N-[(2R)-2-hydroxypropyl]biphenyl-2-sulfonamide]
7 |  |  | 12 | 1 | CC(C)(C)NS(=O)(=O)c1ccccc1-c1ccc(-c2cnc3c(c2)OCCN3)c(F)c1 [Example 393, N-tert-Butyl-4′-(3,4-dihydro-2H-pyrido[3,2-b][1,4]oxazin-7-yl)-3′-fluorobiphenyl-2-sulfonamide]
8 |  |  | 135 | 14 | CC(C)C[C@H](NS(=O)(=O)c1ccccc1-c1ccc(-c2cnc(N)cn2)c(F)c1)C(N)=O [Example 168, (S)-2-(4′-(5-Aminopyrazin-2-yl)-3′-fluoro-[1,1′-biphenyl]-2-ylsulfonamido)-4-methylpentanamide]
9 | 52.3 | 1.9 |  |  | N#Cc1nc(N)cnc1-c1ccc(-c2ccc(C(F)(F)F)cc2S(=O)(=O)NCCO)cc1F [Example 712, 4′-(5-Amino-3-cyanopyrazin-2-yl)-3′-fluoro-N-(2-hydroxyethyl)-4-(trifluoromethyl)biphenyl-2-sulfonamide]
10 |  |  | 5000 | 1200 | Nc1cnc(-c2ccc(-c3ccccc3CS(N)(=O)=O)cc2F)cn1 [Example 230, 1-[4′-(5-Aminopyrazin-2-yl)-3′-fluorobiphenyl-2-yl]methanesulfonamide hydrochloride]
11 | 173 | 7.8 |  |  | Nc1cnc(-c2ccc(-c3ccccc3Oc3cccc(C(F)(F)F)n3)cc2F)cn1 [Example 625, 5-(3-Fluoro-2′-{[6-(trifluoromethyl)pyridin-2-yl]oxy}biphenyl-4-yl)pyrazin-2-amine]
12 |  |  | 43 | 2 | Nc1cnc(-c2ccc(-c3ccc(C(F)(F)F)cc3S(N)(=O)=O)cc2F)cn1 [Example 206, 4′-(5-Aminopyrazin-2-yl)-3′-fluoro-4-(trifluoromethyl)biphenyl-2-sulfonamide]
13 |  |  | 322 | 49 | Nc1cnc(-c2ccc(-c3ccccc3S(=O)(=O)N3CCC(N)CC3)cc2F)cn1 [Example 65, 5-{2′-[(4-Aminopiperidin-1-yl)sulfonyl]-3-fluorobiphenyl-4-yl}pyrazin-2-amine]
14 | 1090 | 48.9 |  |  | COc1c(-c2ccccc2)ccc(-c2cnc(N)cn2)c1F [Example 834, 5-(3-Fluoro-2-methoxybiphenyl-4-yl)pyrazin-2-amine]
15 | 3710 | 234 |  |  | Nc1ncc(-c2ccc(-c3ccc(C(F)(F)F)cc3CN3CCOCC3)cn2)cn1 [Example 676, 5-{5-[2-(Morpholin-4-ylmethyl)-4-(trifluoromethyl)phenyl]pyridin-2-yl}pyrimidin-2-amine]
16 | 1970 | 36 |  |  | N#Cc1nc(-c2ccc(-c3ccccc3S(=O)(=O)C3CC3)cc2F)cnc1N [Example 411, 3-Amino-6-[2′-(cyclopropylsulfonyl)-3-fluorobiphenyl-4-yl]pyrazine-2-carbonitrile]
17 | 280 | 602 |  |  | CCNS(=O)(=O)c1ccccc1-c1ccc(-c2cnc(N)nc2)nc1 [Example 683, 2-[6-(2-Aminopyrimidin-5-yl)pyridin-3-yl]-N-ethylbenzenesulfonamide trifluoroacetic acid salt]
18 |  |  | 671 | 45 | Nc1ncc(-c2ccc(-c3ccccc3Sc3cnccn3)cc2F)cn1 [Example 333, 5-[3-Fluoro-2′-(pyrazin-2-ylsulfanyl)biphenyl-4-yl]pyrimidin-2-amine hydrochloride]

Row | IC50 [1, 2] [nM] | Ki (human FLAP; wild type FLAP) [nM] | IC50 [1, 3] [nM] | Ki (human FLAP; [4]) [nM] | SMILES
19 |  |  | 91 | 4 | CNS(=O)(=O)c1cc(C(F)(F)F)ccc1-c1ccc(-c2cnc(N)nc2)c(F)c1 [Example 325, 4′-(2-Aminopyrimidin-5-yl)-3′-fluoro-N-methyl-4-(trifluoromethyl)biphenyl-2-sulfonamide]
20 | 17.4 | 2.4 |  |  | CCNS(=O)(=O)c1cc(C(F)(F)F)ccc1-c1cnc(-c2cnc(N)nc2)c(F)c1 [Example 674, 2-[6-(2-Aminopyrimidin-5-yl)-5-fluoropyridin-3-yl]-N-ethyl-5-(trifluoromethyl)benzenesulfonamide]
21 | 106 | 52.2 |  |  | Nc1ncc(-c2ccc(-c3ccccc3S(=O)(=O)N3CCCCCC3)cn2)cn1 [Example 681, 5-{5-[2-(Azepan-1-ylsulfonyl)phenyl]pyridin-2-yl}pyrimidin-2-amine trifluoroacetic acid salt]
22 | 209 | 41 |  |  | CS(=O)(=O)c1ccccc1-c1ccc(-c2cnc(N)cn2)c(F)c1F [Example 461, 5-[2,3-Difluoro-2′-(methylsulfonyl)biphenyl-4-yl]pyrazin-2-amine]
23 | 112 | 8.7 |  |  | COc1c(-c2ccc(C(F)(F)F)cc2)ccc(-c2cnc(N)cn2)c1F [Example 698, 5-(3-fluoro-2-methoxy-4′-(trifluoromethyl)-[1,1′-biphenyl]-4-yl)pyrazin-2-amine]
24 |  |  | 2000 | 689 | Nc1ncc(-c2ccc(-c3ccccc3S(=O)(=O)CCCn3c(=O)[nH]c4ccccc43)cc2F)cn1 [Example 318, 1-(3-((4′-(2-Aminopyrimidin-5-yl)-3′-fluoro-[1,1′-biphenyl]-2-yl)sulfonyl)propyl)-1H-benzo[d]imidazol-2(3H)-one]
25 | 5.96 | 3.2 |  |  | Nc1cnc(-c2ccc(-c3cccnc3S(=O)(=O)C3CC3)cc2F)cn1 [Example 829, 5-{4-[2-(Cyclopropylsulfonyl)pyridin-3-yl]-2-fluorophenyl}pyrazin-2-amine formic acid salt]
26 | 52 | 2 |  |  | Nc1cnc(-c2ccc(-c3ccccc3Oc3cc(N4CCC4)ncn3)cc2F)cn1 [Example 539, 5-{2′-[(6-Azetidin-1-ylpyrimidin-4-yl)oxy]-3-fluorobiphenyl-4-yl}pyrazin-2-amine]
27 | 90 | 36 |  |  | Nc1ccnc(Oc2ccccc2-c2ccc(-c3cnc(N)nc3)c(F)c2)n1 [Example 529, 5-{2′-[(4-Aminopyrimidin-2-yl)oxy]-3-fluorobiphenyl-4-yl}pyrimidin-2-amine]
28 |  |  | 66 | 12 | Nc1cnc(Sc2ccccc2-c2ccc(-c3cnc(N)nc3)c(F)c2)nc1 [Example 329, 5-{2′-[(5-Aminopyrimidin-2-yl)sulfanyl]-3-fluorobiphenyl-4-yl}pyrimidin-2-amine formate salt]
29 |  |  | 106 | 5 | CC(C)CNS(=O)(=O)c1ccccc1-c1ccc(-c2ccc(N)nc2)c(F)c1 [Example 348, 4′-(6-Aminopyridin-3-yl)-3′-fluoro-N-iso-butyl-[1,1′-biphenyl]-2-sulfonamide]
30 |  |  | 12 | 1 | Nc1cnc(-c2ccc(-c3ccccc3S(=O)(=O)NCC3CC3)cc2F)cn1 [Example 90, 4′-(5-Aminopyrazin-2-yl)-N-(cyclopropylmethyl)-3′-fluorobiphenyl-2-sulfonamide]
31 | 140 | 3 |  |  | CNS(=O)(=O)c1ccccc1-c1ccc(-c2cnc3[nH]cc(CO)c3c2)c(F)c1 [Example 457, 3′-Fluoro-4′-[3-(hydroxymethyl)-1H-pyrrolo[2,3-b]pyridin-5-yl]-N-methylbiphenyl-2-sulfonamide]
32 | 99.1 | 8.1 |  |  | Cn1cc(-c2ccccc2-c2ccc(-c3cnc(N)cn3)c(F)c2)cn1 [Example 847, 5-[3-Fluoro-2′-(1-methyl-1H-pyrazol-4-yl)biphenyl-4-yl]pyrazin-2-amine]
33 | 861 | 64.7 |  |  | N#Cc1nc(N)cnc1-c1ccc(-c2ccccc2S(=O)(=O)C2CC2)cc1F [Example 729, 6-Amino-3-[2′-(cyclopropylsulfonyl)-3-fluorobiphenyl-4-yl]pyrazine-2-carbonitrile]
34 |  |  | 59 | 10 | CNS(=O)(=O)c1ccccc1-c1ccc(-c2cnc(N)cn2)c(F)c1 [Example 15, 4′-(5-Aminopyrazin-2-yl)-3′-fluoro-N-methylbiphenyl-2-sulfonamide]
35 | 137 | 2 |  |  | N#Cc1nc(N)cnc1-c1ccc(-c2ccc(C(F)(F)F)cc2Oc2ncccn2)cc1F [Example 746, 6-Amino-3-[3-fluoro-2′-(pyrimidin-2-yloxy)-4′-(trifluoromethyl)biphenyl-4-yl]pyrazine-2-carbonitrile]
